Data taken from US20070098649A1, “Method and composition for controlling oral pathogens” (priority 2004, published 2007).
Structures can show the parent of a compound that is named as a salt. Where two headings read alike, the source gives them in different places.

How the values were obtained:
[1] = system: S. aureus, E. coli, P. aeruginosa, and S. sanguis; settings: isolated from H. canadensis; cited from earlier work
Porphymonas gingivalis [2] = experiment: MIC microdilution assay; assay type: cell-based; settings: for MIC: Porphyromonas gingivalis
Streptococcus gordonii [3] = experiment: MIC microdilution assay; assay type: cell-based; settings: for MIC: Streptococcus gordonii
Streptococcus mutans [4] = experiment: MIC microdilution assay; assay type: cell-based; settings: for MIC: Streptococcus mutans
Fusobacterium nucleatum [5] = experiment: MIC microdilution assay; assay type: cell-based; settings: for MIC: Fusobacterium nucleatum
[6] = system: Actinobacillus actinomycetemcomitans; experiment: MIC microdilution assay; assay type: cell-based; settings: for MIC: Aggregatibacter actinomycetemcomitans
test bacteria [7] = experiment: MIC microdilution assay, statements on all test bacteria; assay type: cell-based; settings: read-out: Concentration without growth inhibition of the test bacteria (MIC bound)
P. gingivalis = experiment: Relative cell surface hydrophobicity (hexanes partition); assay type: cell-based; settings: agent alone 5 μg ml^−1
oral pathogens = experiment: Combination determination, statements on the oral pathogens; assay type: cell-based; settings: berberine hydrochloride / berberine (B-CG and B-S)
Procedure: (§1) The alkaloids were tested in pair-wise combinations (fractional inhibitory concentrations, FIC) against all the bacteria to determine whether interactions were antagonistic (FIC>1), additive (0.5<FIC<1), or synergistic (FIC<0.5). The FIC was calculated by the following: (MIC Acombination/MIC Aalone)+(MIC Bcombination/MIC Balone). Where A represents compound 1 and B represents compound 2. […] In the case of A. actinomycetemcomitans and P. aeruginosa, CHX was used at 0.78 to 50 μg ml^−1. Berberine (B-CG and B-S) was used at concentrations 0.9 to 250 μg ml^−1. The antibacterial efficacy of berberine (1.95 to 500 μg ml^−1) was tested in combination against P. aeruginosa with CHX (0.78 to 50 μg ml^−1) (Sigma Chemicals) and the polymyxin antibiotic Col (0.04 to 25 μg ml^−1) (Sigma Chemicals). The plates were incubated for 24 hours.

F. nucleatum [8] = experiment: Viability assessment (bactericidal activity); assay type: cell-based
Procedure: Two representative organisms, S. mutans and F. nucleatum, were used in this study. […] Aliquots of 4 ml of agent, prepared in sterile water, were placed into sterile test tubes and 1 ml of adjusted cells was added. The control consisted of 4 ml of PBS and 1 ml of cells. Samples were removed at 0, 15, 30, and 60 minutes, serial dilutions were performed, and the appropriate dilutions plated out. The plates were incubated at 37° C. under appropriate atmospheric conditions for up to 72 hours. Viable colony counts were determined and compared to nontreated control Percentage kill was calculated using the formula: ([…]×100. Log reduction was also calculated on Log10 transformed data. Effect of Berberine on Cell Surface Hydrophobicity

Staphylococcus aureus [9] = experiment: MIC microdilution assay; assay type: cell-based; settings: S. aureus, agent alone, read-out: MIC of the antimicrobial agents alone
F. nucleatum [10] = experiment: Relative cell surface hydrophobicity (hexanes partition); assay type: cell-based; settings: agent alone 5 μg ml^−1
Streptococcus mutans [11] = experiment: Combination determination (FIC, MIC in combination); assay type: cell-based; settings: S. mutans
Procedure: as §1
CHX was diluted from left to right at 10 to 0.08 μg ml^−1 ([…] 1 to 8), berberine was diluted from top to bottom at 250 to 0.09 μg ml^−1 ([…] 1 to 8). Column 9 was the cell control, column 10 was berberine alone (250 to 0.09 μg ml^−1); and column 11 was CHX alone (10 to 0.08 μg ml^−1). Row H was the solvent control (8% DMSO, H1 to H8). Column 12 was the media blank. The dilution assay was designed such that A1 contained the highest concentration of both agents (berberine 250 μg ml^−1 and CHX 10 μg ml^−1). The final concentration of berberine in wells A2 to A8 was […]. The FIC value was calculated from well C6. FIC was calculated by: (MIC Acombination/MIC Aalone)+(MIC Bcombination/MIC Balone).

S. mutans = experiment: Relative cell surface hydrophobicity (hexanes partition); assay type: cell-based; settings: agent alone 5 μg ml^−1
test bacteria [12] = experiment: Relative cell surface hydrophobicity, statements on the test bacteria; assay type: cell-based; settings: summary of Table 12
Escherichia coli [13] = experiment: MIC microdilution assay; assay type: cell-based; settings: E. coli, agent alone, read-out: MIC of the antimicrobial agents alone
Porphymonas gingivalis [14] = experiment: Combination determination (FIC, MIC in combination); assay type: cell-based; settings: P. gingivalis
Procedure: as §1

Streptococcus gordonii [15] = experiment: as above; assay type: cell-based; settings: S. gordonii
Procedure: as §1

Escherichia coli [16] = experiment: as above; assay type: cell-based; settings: E. coli
Procedure: as §1

Staphylococcus aureus [17] = experiment: as above; assay type: cell-based; settings: S. aureus; for Approximate amount of antibiotic required when combined with berberine relative to when the agent is used alone: fraction of the amount alone, HCl
Procedure: as §1

[18] = system: Actinobacillus actinomycetemcomitans; experiment: as above; assay type: cell-based; settings: A. actinomycetemcomitans grown under anaerobic conditions; berberine (B-CG) combined with CHX, Tet or Dox; MIC of the named agent in the combination
Procedure: as §1

Fusobacterium nucleatum [19] = experiment: as above; assay type: cell-based; settings: F. nucleatum
Procedure: as §1

A. actinomycetemcomitans = experiment: Relative cell surface hydrophobicity (hexanes partition); assay type: cell-based; settings: agent alone 5 μg ml^−1
S. gordonii = experiment: as above; assay type: cell-based; settings: agent alone 5 μg ml^−1
[20] = read-out: MIC of Goldenseal Alkaloids Against Selected Oral Pathogens
[21] = berberine (B-CG) combined with CHX, Tet or Dox, MIC of the named agent in the combination
[22] = berberine hydrochloride / chloride

SMILES: COc1ccc(C[C@@H]2c3cc4c(cc3CCN2C)OCO4)c(C=O)c1OC [Canadaline, canadaline]
- Antibacterial activity [1]: antimicrobial at comparable concentrations to berberine
- MIC of Goldenseal Alkaloids Against Selected Oral Pathogens (Porphymonas gingivalis [2]; Pg, P. gingivalis): >250 µg/mL
- MIC of Goldenseal Alkaloids Against Selected Oral Pathogens (Streptococcus gordonii [3]; Sg, S. gordonii): >250 µg/mL
- MIC of Goldenseal Alkaloids Against Selected Oral Pathogens (Streptococcus mutans [4]; Sm, S. mutans): >250 µg/mL
- MIC of Goldenseal Alkaloids Against Selected Oral Pathogens (Fusobacterium nucleatum [5]; Fn, F. nucleatum): >250 µg/mL
- MIC of Goldenseal Alkaloids Against Selected Oral Pathogens ([6]; Aa, A. actinomycetemcomitans): >250 µg/mL

SMILES: COc1ccc2c(c1OC)CN1CCc3cc4c(cc3[C@@H]1C2)OCO4 [Canadine, canadine]
- Antibacterial activity [1]: antimicrobial at comparable concentrations to berberine
- MIC (Porphymonas gingivalis [2]; [20]): > 500 µg/mL
- MIC (test bacteria [7]): > 250 µg/mL
- MIC (Streptococcus gordonii [3]; [20]): > 500 µg/mL
- MIC (Streptococcus mutans [4]; [20]): > 500 µg/mL
- MIC (Fusobacterium nucleatum [5]; [20]): > 500 µg/mL
- MIC [6, 20]: > 500 µg/mL

SMILES: C[C@H]1c2cccc(O)c2C(=O)C2=C(O)[C@]3(O)C(=O)C(C(N)=O)=C(O)[C@@H](N(C)C)[C@@H]3[C@@H](O)[C@@H]21 [Dox, doxycycline HCl]
- Typical reduction scores on relative cell surface hydrophobicity (P. gingivalis): 1.7%
- Growth inhibition effect when combined with berberine (oral pathogens): synergistic
- Reduction of the concentration required for comparable reduction in viability when used in combination (F. nucleatum [8]; Dox (5 μg ml^−1), berberine (250 μg ml^−1)): one-half
- Viability after 60 min exposures (mean Log10 reduction of CFU) (F. nucleatum [8]; Dox (10)): 1.56 Log10
- MIC (Porphymonas gingivalis [2]; P. gingivalis, agent alone, read-out: MIC of the antimicrobial agents alone): 0.08 µg/mL
- MIC (Staphylococcus aureus [9]): 1.53 µg/mL
- Typical reduction scores on relative cell surface hydrophobicity (F. nucleatum [10]): −3.5%
- MIC (Streptococcus gordonii [3]; S. gordonii, agent alone, read-out: MIC of the antimicrobial agents alone): 0.31 µg/mL
- MIC of the antimicrobial agents in combination (Streptococcus mutans [11]; [21]): 0.20 µg/mL
- Approximate amount of antibiotic required when combined with berberine relative to when the agent is used alone (Streptococcus mutans [11]; fraction of the amount alone): ¼
- Typical reduction scores on relative cell surface hydrophobicity (S. mutans): 8.1%
- MIC (Streptococcus mutans [4]; S. mutans, agent alone, read-out: MIC of the antimicrobial agents alone): 0.78 µg/mL
- Effect on the relative hydrophobicity of the cells (test bacteria [12]): did not appear to affect
- MIC (Fusobacterium nucleatum [5]; F. nucleatum, agent alone, read-out: MIC of the antimicrobial agents alone): 0.04 µg/mL
- MIC (Escherichia coli [13]): 1.53 µg/mL
- MIC of the antimicrobial agents in combination (Porphymonas gingivalis [14]; [21]): 0.01 µg/mL
- Approximate amount of antibiotic required when combined with berberine relative to when the agent is used alone (Porphymonas gingivalis [14]; fraction of the amount alone): ¼
- MIC of the antimicrobial agents in combination (Streptococcus gordonii [15]; [21]): 0.08 µg/mL
- Approximate amount of antibiotic required when combined with berberine relative to when the agent is used alone (Streptococcus gordonii [15]; fraction of the amount alone): <¼
- MIC of the antimicrobial agents in combination (Escherichia coli [16]; [21]): 0.77 µg/mL
- Growth inhibition effect when combined with berberine (Escherichia coli [16]; [22]): synergistic
- Approximate amount of antibiotic required when combined with berberine relative to when the agent is used alone (Escherichia coli [16]; fraction of the amount alone): ½
- MIC of the antimicrobial agents in combination (Staphylococcus aureus [17]; [21]): 0.39 µg/mL
- Growth inhibition effect when combined with berberine (Staphylococcus aureus [17]; [22]): synergistic
- Approximate amount of antibiotic required when combined with berberine relative to when the agent is used alone (Staphylococcus aureus [17]; listed as Doxycycline (HCL)): ⅕
- Approximate amount of antibiotic required when combined with berberine relative to when the agent is used alone (Staphylococcus aureus [17]; listed as Doxycycline-HCl): ½
- MIC of the antimicrobial agents in combination [18]: 6.25 µg/mL
- MIC of the antimicrobial agents in combination (Fusobacterium nucleatum [19]; [21]): 0.10 µg/mL
- Approximate amount of antibiotic required when combined with berberine relative to when the agent is used alone (Fusobacterium nucleatum [19]; fraction of the amount alone): ¼
- Typical reduction scores on relative cell surface hydrophobicity (A. actinomycetemcomitans): −4.1%
- Typical reduction scores on relative cell surface hydrophobicity (S. gordonii): 7.7%
- MIC ([6]; A. actinomycetemcomitans grown under anaerobic conditions, agent alone, read-out: MIC of the antimicrobial agents alone): 6.25 µg/mL

SMILES: COc1ccc2c(c1OC)C(=O)O[C@@H]2[C@H]1c2cc3c(cc2CCN1C)OCO3 [Hydrastine, hydrastine]
- MIC (Porphymonas gingivalis [2]; [20]): > 500 µg/mL
- MIC (test bacteria [7]): > 500 µg/mL
- MIC (Streptococcus gordonii [3]; [20]): > 500 µg/mL
- MIC (Streptococcus mutans [4]; [20]): > 500 µg/mL
- MIC (Fusobacterium nucleatum [5]; [20]): > 500 µg/mL
- MIC [6, 20]: > 500 µg/mL
